Results on 21 compounds are retold here after ChEMBL document CHEMBL1141559, “Alpha-hydroxy amides as a novel class of bradykinin B1 selective antagonists” (Bioorg Med Chem Lett, 2008).

The target in series [1] is T1, B1 bradykinin receptor (Homo sapiens, UniProt P46663).
T1 sequence (P46663 whole entry): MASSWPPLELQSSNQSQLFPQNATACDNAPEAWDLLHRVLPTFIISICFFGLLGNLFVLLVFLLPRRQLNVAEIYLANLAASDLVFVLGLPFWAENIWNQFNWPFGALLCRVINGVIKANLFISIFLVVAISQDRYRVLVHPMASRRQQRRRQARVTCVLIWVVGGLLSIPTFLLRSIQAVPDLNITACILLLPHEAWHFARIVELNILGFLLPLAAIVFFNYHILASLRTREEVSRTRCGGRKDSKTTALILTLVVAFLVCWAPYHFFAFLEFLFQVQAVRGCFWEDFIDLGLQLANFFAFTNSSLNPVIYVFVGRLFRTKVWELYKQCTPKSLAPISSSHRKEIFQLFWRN
The series can be described thus: Binding affinity to human bradykinin B1 receptor expressed in CHO cells. The class given is cell-based.

The next series deals with LLC-PK1. Description: Ratio of permeability from basolateral to apical over apical to basolateral side of pig MDR1 transfected LLC-PK1 cells. The class given is ADME, cell-based, Sus scrofa.
A short description of series [2]: Half life in Beagle dog at 0.25 mg/kg, iv. The class given is ADME, organism-based, Canis lupus familiaris. On the set-up: dose 0.25 mg/kg, route intravenous. The settings on record: in vivo.
Series [3] can be described thus: Clearance in Beagle dog at 0.25 mg/kg, iv. In kind it is ADME, organism-based, Canis lupus familiaris. On the set-up: dose 0.25 mg/kg, route intravenous. The settings on record: in vivo.
Series [4] is described as follows: Volume of distribution in Beagle dog at 0.25 mg/kg, iv. In kind it is ADME, organism-based, Canis lupus familiaris. On the set-up: dose 0.25 mg/kg, route intravenous. The following applies: in vivo.
Series [5] has as its target T1, B1 bradykinin receptor. The series can be described thus: […] human bradykinin B1 receptor by FLIPR assay.
Series [6] is described as follows: Apparent permeability across pig LLC-PK1 cells. The class given is ADME, cell-based, Sus scrofa.
Series [7] can be described thus: Oral bioavailability in Sprague-Dawley rat at 10 mg/kg. In kind it is ADME, organism-based. The settings on record: in vivo.
Series [8] can be described thus: Half life in Sprague-Dawley rat at 10 mg/kg, po or 2 mg/kg, iv. The settings on record: in vivo. In kind it is ADME, organism-based.
The nature of series [9]: Clearance in Sprague-Dawley rat at 10 mg/kg, po or 2 mg/kg, iv. The following applies: in vivo. The class given is ADME, organism-based.
Series [10] in a line: Volume of distribution in Sprague-Dawley rat at 10 mg/kg, po or 2 mg/kg, iv. The class given is ADME, organism-based. The settings on record: in vivo, read-out: Vdss.
For another series, the target named is Cytochrome P450 3A4 (Homo sapiens, UniProt P08684). The series can be described thus: Inhibition of CYP3A4. In kind it is ADME.
Cytochrome P450 3A4, sequence (P08684 whole entry): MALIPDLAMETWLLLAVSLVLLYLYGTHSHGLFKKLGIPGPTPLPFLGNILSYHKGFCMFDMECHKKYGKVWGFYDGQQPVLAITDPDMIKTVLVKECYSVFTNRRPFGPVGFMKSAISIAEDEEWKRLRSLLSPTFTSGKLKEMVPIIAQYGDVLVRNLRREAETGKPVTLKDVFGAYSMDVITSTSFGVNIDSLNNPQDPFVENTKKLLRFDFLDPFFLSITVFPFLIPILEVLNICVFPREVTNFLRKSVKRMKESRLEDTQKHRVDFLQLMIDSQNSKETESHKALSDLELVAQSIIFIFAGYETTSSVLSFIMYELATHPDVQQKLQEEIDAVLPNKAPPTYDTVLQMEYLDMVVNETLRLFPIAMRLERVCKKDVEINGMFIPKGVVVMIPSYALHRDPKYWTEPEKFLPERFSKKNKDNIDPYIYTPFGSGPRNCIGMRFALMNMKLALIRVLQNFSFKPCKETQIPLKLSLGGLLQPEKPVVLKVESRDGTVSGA
The next series addresses Cytochrome P450 2C9 (Homo sapiens, UniProt P11712). The series can be described thus: Inhibition of CYP2C9. The class given is ADME.
The target in a further series is Cytochrome P450 2D6 (Homo sapiens, UniProt P10635). Description: Inhibition of CYP2D6. In kind it is ADME.
Cytochrome P450 2D6, sequence (P10635 whole entry): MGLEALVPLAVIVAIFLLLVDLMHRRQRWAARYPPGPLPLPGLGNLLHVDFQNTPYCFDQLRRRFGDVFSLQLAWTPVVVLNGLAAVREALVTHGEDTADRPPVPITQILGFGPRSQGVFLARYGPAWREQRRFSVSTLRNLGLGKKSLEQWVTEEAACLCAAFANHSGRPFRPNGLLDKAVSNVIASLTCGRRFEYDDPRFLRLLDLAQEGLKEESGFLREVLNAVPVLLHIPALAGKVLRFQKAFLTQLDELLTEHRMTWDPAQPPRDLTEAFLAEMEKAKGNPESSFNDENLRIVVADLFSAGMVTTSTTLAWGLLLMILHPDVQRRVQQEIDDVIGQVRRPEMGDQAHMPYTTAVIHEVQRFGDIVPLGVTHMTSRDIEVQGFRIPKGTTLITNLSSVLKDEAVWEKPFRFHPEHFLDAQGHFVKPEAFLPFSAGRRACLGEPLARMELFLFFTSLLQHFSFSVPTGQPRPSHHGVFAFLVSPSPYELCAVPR
Series [11] can be described thus: Oral bioavailability in Beagle dog at 3 mg/kg by cassette dosing. In kind it is ADME, organism-based, Canis lupus familiaris. The following applies: in vivo.
A short description of series [12]: Half life in Beagle dog at 3 mg/kg, po or 1 mg/kg, iv by cassette dosing. In kind it is ADME, organism-based, Canis lupus familiaris. The following applies: in vivo.
Series [13] can be described thus: Clearance in Beagle dog at 3 mg/kg, po or 1 mg/kg, iv by cassette dosing. In kind it is ADME, organism-based, Canis lupus familiaris. The following applies: in vivo.
Series [14] is described as follows: Oral bioavailability in rhesus monkey at 1 mg/kg. The class given is ADME, organism-based, Macaca mulatta. The settings on record: in vivo.
Series [15] can be described thus: Half life in rhesus monkey at 1 mg/kg, po or 1 mg/kg, iv. The class given is ADME, organism-based, Macaca mulatta. The settings on record: in vivo.
Series [16] in a line: Clearance in rhesus monkey at 1 mg/kg, po or 1 mg/kg, iv. In kind it is ADME, organism-based, Macaca mulatta. The following applies: in vivo.

Cytochrome P450 2C9, sequence (P11712 whole entry): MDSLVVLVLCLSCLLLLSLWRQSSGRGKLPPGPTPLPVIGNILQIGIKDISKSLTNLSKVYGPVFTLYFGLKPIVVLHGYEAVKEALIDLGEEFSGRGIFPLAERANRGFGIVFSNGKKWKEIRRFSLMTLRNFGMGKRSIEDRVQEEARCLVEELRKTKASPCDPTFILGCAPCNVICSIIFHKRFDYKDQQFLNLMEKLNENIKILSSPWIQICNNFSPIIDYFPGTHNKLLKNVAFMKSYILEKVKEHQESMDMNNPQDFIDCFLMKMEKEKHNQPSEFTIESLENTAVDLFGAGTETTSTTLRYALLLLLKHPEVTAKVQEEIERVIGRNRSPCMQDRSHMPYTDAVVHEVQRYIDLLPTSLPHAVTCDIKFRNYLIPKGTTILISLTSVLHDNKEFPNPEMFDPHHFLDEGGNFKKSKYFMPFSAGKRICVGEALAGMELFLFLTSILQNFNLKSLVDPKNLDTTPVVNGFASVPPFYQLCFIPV

On B1 bradykinin receptor [1], `COC(=O)c1c(F)cccc1-c1ccc(CNC(=O)[C@](C)(O)C(F)(F)F)c(F)c1` displayed an inhibition constant (Ki) of 0.579 µM.

At B1 bradykinin receptor [1], `COC(=O)c1c(F)cccc1-c1ccc(CNC(=O)[C@@H](O)C(C)C)c(F)c1` came in with a Ki of 0.0715 µM.

The compound `COC(=O)c1c(F)cccc1-c1ccc(CNC(=O)CO)c(F)c1` came in with a Ki on B1 bradykinin receptor [1] of 0.516 µM.

As to `COC(=O)c1c(F)cccc1-c1ccc(CNC(=O)[C@@H](C)O)c(F)c1`, the Ki at B1 bradykinin receptor [1] is 1.05 µM.

In the case of `COC(=O)c1c(F)cccc1-c1ccc(CNC(=O)[C@H](O)C(F)(F)F)c(F)c1`, the affinity on B1 bradykinin receptor [1] corresponds to a Ki of 0.479 µM.

As to `COC(=O)c1c(F)cccc1-c1ccc(CNC(=O)C2(O)CC2)c(F)c1`, the Ki at B1 bradykinin receptor [1] turned out to be 0.0591 µM.

On to `COC(=O)c1c(F)cccc1-c1ccc(CNC(=O)C2(NC(=O)C(F)(F)F)CC2)c(F)c1`, for which the Ratio with LLC-PK1 is on record as 4.1.

The compound `COC(=O)c1c(F)cccc1-c1ccc(CNC(=O)[C@@](C)(O)C(F)(F)F)c(F)c1` showed a half-life in [2] of 1.4 h. Moreover, in series [3], the clearance worked out at 16 mL/min/kg. The compound also displayed a Vd in [4] of 1.2 L/kg. The Ki at B1 bradykinin receptor [1] came out at 0.0245 µM. Further, the IC50 at B1 bradykinin receptor [5] amounted to 0.0436 µM. In addition, in the series on LLC-PK1, the Ratio came to 1.6. The apparent permeability coefficient (Papp) in series [6] came out at 32 ×10⁻⁶ cm/s.

`COC(=O)c1c(F)cccc1-c1ccc(CNC(=O)[C@H](C)O)c(F)c1` had a Ki on B1 bradykinin receptor [1] of 0.66 µM.

Turning to `C[C@@H](NC(=O)[C@@](C)(O)C(F)(F)F)c1ncc(-c2cc(Cl)cc(F)c2-c2nnn(C)n2)cc1F`, the bioavailability in series [7] is 53%. Moreover, the figures for the half-life in series [8] and in series [2] were 27 h and 38 h, respectively. Further, the clearance in series [9] came out at 1 mL/min/kg; in series [3] it was 0.22 mL/min/kg. Also, the Vd in [10] is 0.54 L/kg; in series [4] it was 0.47 L/kg. Further, the concentration for half-maximal inhibition (IC50) was more than 10 µM at Cytochrome P450 3A4, more than 10 µM at Cytochrome P450 2C9, more than 10 µM on Cytochrome P450 2D6 and 0.0049 µM at B1 bradykinin receptor [5]. The compound also had a Ki at B1 bradykinin receptor [1] of 0.00059 µM. Further, in the series with LLC-PK1, the Ratio is given as 2.8. In [6], the Papp turned out to be 36 ×10⁻⁶ cm/s.

In the case of `C[C@@H](NC(=O)[C@@](C)(O)C(F)(F)F)c1ncc(-c2cc(Cl)cc(F)c2-c2nnn(C)n2)cc1Cl`, in series [7], the bioavailability was found to be 71%. Besides, the half-life in series [8] is 4.9 h; in series [2], 9.8 h. For the same compound, the clearance in [9] is 2.4 mL/min/kg; in series [3], 1.3 mL/min/kg. The Vd is 0.86 L/kg in series [10] and 0.74 L/kg in series [4]. This compound gave an inhibition constant Ki on B1 bradykinin receptor [1] of 0.00043 µM. Also, the Ratio in the series with LLC-PK1 was 1.8. Besides, in series [6], the apparent permeability coefficient (Papp) came to 26 ×10⁻⁶ cm/s.

As for `CCC(O)(CC)C(=O)NCc1ccc(-c2cccc(F)c2C(=O)OC)cc1F`, on B1 bradykinin receptor [1], the inhibition constant Ki came to 1.09 µM.

`COC(=O)c1c(F)cccc1-c1ccc(CNC(=O)C(C)(C)O)c(F)c1` gave an inhibition constant (Ki) at B1 bradykinin receptor [1] of 0.125 µM.

In turn, `COC(=O)c1c(F)cccc1-c1ccc(CNC(=O)[C@@H](O)C(C)(C)C)c(F)c1` showed an inhibitory constant (Ki) on B1 bradykinin receptor [1] of 0.0885 µM.

With `COC(=O)c1c(Cl)cc(Cl)cc1-c1cnc([C@@H](C)NC(=O)[C@@](C)(O)C(F)(F)F)c(F)c1`, the bioavailability in series [7] was found to be 47%. In addition, the half-life in series [8] is 5.6 h; in series [2] it was 3.6 h. The clearance came to 7.8 mL/min/kg in series [9] and 3.2 mL/min/kg in [3]. Further, the Vd was determined as 1.2 L/kg in series [10] and 0.73 L/kg in [4]. The Ki on B1 bradykinin receptor [1] is 0.00035 µM. Further, at B1 bradykinin receptor [5], the IC50 was 0.00393 µM. Further, in the series with LLC-PK1, the Ratio is on record as 1.6. Moreover, the Papp in series [6] was 23 ×10⁻⁶ cm/s.

Regarding `Cc1nc(-c2c(F)cc(Cl)cc2-c2cnc([C@@H](C)NC(=O)[C@@](C)(O)C(F)(F)F)c(F)c2)no1`, the bioavailability in series [7] came to 34%; in series [11], 84%; in [14], 52%. The half-life in [8] was 2 h; in [2], 17 h; in series [12], 11 h; in series [15] it was 1.3 h. Besides, the clearance in series [9] came to 4.9 mL/min/kg; in [3], 0.42 mL/min/kg; in series [13], 0.45 mL/min/kg; in series [16], 7.1 mL/min/kg. Besides, the Vd in [10] stood at 0.52 L/kg; in series [4], 0.51 L/kg. Also, the apparent permeability coefficient (Papp) in series [6] came out at 27 ×10⁻⁶ cm/s.

Turning to `COC(=O)c1c(F)cccc1-c1ccc(CNC(=O)[C@@](C)(O)C(C)C)c(F)c1`, the affinity on B1 bradykinin receptor [1] corresponds to a Ki of 0.0835 µM.

Regarding `COC(=O)c1c(F)cccc1-c1ccc(CNC(=O)C(O)(C(F)(F)F)C(F)(F)F)c(F)c1`, the Ki on B1 bradykinin receptor [1] came out at 0.095 µM.

Take `Cc1noc(-c2c(Cl)cc(Cl)cc2-c2cnc([C@@H](C)NC(=O)[C@@](C)(O)C(F)(F)F)c(F)c2)n1`: in series [7], the bioavailability was found to be 21%. In addition, the half-life in series [8] is 3.9 h; in [2] it was 9.5 h. Also, the clearance in series [9] is 20 mL/min/kg; in [3], 0.91 mL/min/kg. Further, the Vd in series [10] is 1 L/kg; in series [4], 0.66 L/kg. The compound also gave an inhibition constant (Ki) at B1 bradykinin receptor [1] of 0.00079 µM. The IC50 on B1 bradykinin receptor [5] amounted to 0.00665 µM. Further, the Ratio with LLC-PK1 stood at 1.3. Besides, the apparent permeability (Papp) in series [6] amounted to 33 ×10⁻⁶ cm/s.

In series [7], `Cc1noc(-c2c(F)cc(Cl)cc2-c2cnc([C@@H](C)NC(=O)[C@@](C)(O)C(F)(F)F)c(F)c2)n1` registered a bioavailability of 32%. The half-life is 1.2 h in series [8] and 15 h in [2]. Also, the clearance came out at 22 mL/min/kg in [9] and 1 mL/min/kg in series [3]. Further, the Vd in series [10] was 1.3 L/kg; in series [4], 1.2 L/kg. Also, the Ki on B1 bradykinin receptor [1] was found to be 0.00066 µM. Further, the IC50 at B1 bradykinin receptor [5] stood at 0.00665 µM. Besides, in the series on LLC-PK1, the Ratio is 1.7. In [6], the apparent permeability (Papp) came out at 35 ×10⁻⁶ cm/s.

Compound `COC(=O)c1c(F)cccc1-c1ccc(CNC(=O)[C@@H](O)C(F)(F)F)c(F)c1` had an inhibition constant (Ki) at B1 bradykinin receptor [1] of 0.109 µM.

The Ki is the dissociation constant of the complex between target and ligand, obtained from inhibition or displacement. Broadly, the half-life is the time in which the quantity being followed falls by half. By IC50 is commonly meant the concentration that inhibits the measured activity by half. By Papp is commonly meant the rate of passage across a membrane or cell layer, normalised by area and donor concentration. Usually bioavailability stands for the share of a dose that reaches the circulation, judged against a reference dose that is usually intravenous.
